Laboratory results taken from a melting point compilation (Tetko et al.; mined from patent text by program, amines drawn as free bases though some values may be those of a salt).
Residues, ends and D or L forms follow the SMILES beside them. *: point of attachment. Boc = CC(C)(C)OC(=O)*

In the case of `NC(=O)c1c(NC(=O)C2CC2)sc2c1CCCC2=O`, the melting point is reported as 203 to 205 °C.
`CN(C)[C@H]1CC[C@H](NC(=O)OC(C)(C)C)C1` gave a melting point of 65 to 67 °C.
Work on `CCOC(=O)C1=C(C)NC(CSCCC#N)=C(C(=O)OCC)C1c1cccc([N+](=O)[O-])c1` (stereo not drawn) yielded a melting point of 102 to 104 °C.
`COc1cccc(C(=O)c2c(N)sc3c2CCN(Cc2ccccc2)C3)c1OC` showed a melting point of 172 to 173 °C.
In the case of `COc1ccc2[nH]c(C(C)C)c(/C=C/C(=O)c3ccncc3)c2c1`, the melting point is reported as 252 to 253 °C.
In the case of `N#CCN1C(=O)C2(COc3cc4c(cc32)OCCO4)c2ccccc21` (stereo not drawn), the melting point is reported as 161 to 162 °C.
For `COc1ccc(C(=O)O)cc1C12CC3CC(CC(C3)C1)C2`, the melting point was 238 to 239 °C.
In the case of `Nc1c([N+](=O)[O-])cc(Br)c2c1CCN(Cc1ccc(C(F)(F)F)cc1)C2`, the melting point is reported as 131 to 133 °C.
Work on `COc1ccccc1N1CCN([C@H]2Cc3c(OC)ccc(OC)c3C[C@H]2O)CC1` (relative stereo) yielded a melting point of 213 to 216 °C.
Molecule `N#Cc1ccc(OCCCn2ccnc2)cc1` has a melting point of 60 to 61.5 °C.
`CSCCC(NC(=O)C(CC(C)C)NC(=O)CNC(=O)C(NC(=O)C(Cc1ccccc1)NC(=O)C(C)NC(=O)OC(C)(C)C)C(C)C)C(=O)O` (stereo not drawn) (Boc-AFVGLM-OH; configuration not given here) gave a melting point of 252 to 281 °C.
With `c1ccc(C(OC2CCN(CCCNc3ccc4ncnn4n3)CC2)c2ccccc2)cc1` the melting point was 136 to 138 °C.
With `CC1CCCN(C(=O)C2Cc3cc(O)ccc3N2c2ccc(=O)n(C)n2)C1` (stereo not drawn) the melting point was 253 to 256 °C.
For `CCN1CC[C@@H]2CC(=O)c3cc(F)ccc3[C@@H]2C1` (relative stereo), the melting point was > 220 °C.
`CC(=O)Oc1ccc(-c2ccc(C(C)=O)cc2)cc1Br` showed a melting point of 100 °C.
Molecule `CC(C)NC1=NS(=O)(=O)c2c(Cl)cccc2N1` has a melting point of 144 to 146 °C.
Molecule `O=[N+]([O-])CS(=O)(=O)c1ccc(F)cc1F` has a melting point of 74 to 75 °C.
For `O=C1NC(=O)c2c1c(-c1ccccc1)cc1c2c2cc(O)ccc2n1CCCBr`, the melting point was 280 to 282 °C.
For `O=C(Nc1ccc([N+](=O)[O-])cc1)c1ccc(Nc2ccncc2)cc1`, the melting point was 298 to 302 °C.
In the case of `O=C1CCC(c2ccc(F)cc2)CC1`, the melting point is reported as 104 to 106 °C.
In the case of `O=C(Nc1ccc(CN2C(=O)[C@H]3CCC[C@H]3N(C(=O)CCl)c3ccccc32)cc1)Oc1ccccc1` (relative stereo), the melting point is reported as 207 to 210 °C.
`COc1ccccc1C=C1N=C(c2ccccc2)OC1=O` gave a melting point of 159 to 161 °C.
For `COc1cccc(CNCc2ccc3nc(N)c4ncn(CC(C)C)c4c3c2)c1`, the melting point was 125 to 126 °C.
In the case of `O=C(NC1CC1)c1nc(-c2ccccc2)c(-c2ccc(=O)[nH]n2)s1`, the melting point is reported as > 250 °C.
Molecule `C=Cc1c(F)c(F)c(F)c2c1c(=O)c(C(=O)OCC)cn2C1CC1` has a melting point of 188 to 189 °C.
With `CCCn1nnc(NC(=O)C2c3ccccc3Oc3ccccc32)n1` the melting point was 208 to 209 °C.
Molecule `CCOCn1c(C(F)(F)F)c(C#N)c2ccc(Cl)cc21` has a melting point of 83 to 86 °C.
For `CC1(C)CCC(O)(CCN2C(=O)CSC2CCCc2ccc(C(=O)O)cc2)CC1` (stereo not drawn), the melting point was 142 to 143 °C.
Work on `CCCN(Cc1cccc(-c2noc(C)n2)c1)C(=O)Nc1ccc(Br)cc1` yielded a melting point of 113 to 114 °C.
For `COC(=O)c1cc(O)c2c(c1)c1ccccc1n2C`, the melting point was 204 to 206 °C.
For `NC(=O)c1ccc(-c2ccccc2C(=O)N2Cc3cccn3Cc3ccccc32)cc1C(F)(F)F`, the melting point was 226 to 228 °C.
For `COc1cc([N+](=O)[O-])ccc1S(=O)(=O)n1c(=O)n(C2CCCCC2)c2cc(Cl)ccc21`, the melting point was 185 °C.
Molecule `CCn1c(=O)c(CC(=O)O)cc2ccc(O)cc21` has a melting point of 226 to 229 °C.
`Cc1cc(C)c(N2CCCCC2=O)cc1NS(=O)(=O)C(F)(F)F` gave a melting point of 260 to 266 °C.
`CC1=CCN(C)C2C1N2C#N` (stereo not drawn) showed a melting point of 117 °C.
`O=C1NCCN1c1ccc(S(=O)(=O)Nc2ccc(F)cc2)cc1` gave a melting point of 249 to 251 °C.
In the case of `COc1ccc(C(C)(CC(C)C)C(=O)NC2CCCCCCCCCCNC2=O)c(S)c1` (stereo not drawn), the melting point is reported as 131 to 136 °C.
With `CC(=Cc1ccccc1)c1ccc2c(c1)OCCC2(C)C` the melting point was 44 to 46 °C.
